In ChEMBL document CHEMBL1150631, “New chemical constituents of Euphorbia quinquecostata and absolute configuration assignment by a convenient Mosher ester procedure carried out in NMR tubes” (J Nat Prod, 2002):
In brackets after ≈: the same amount, converted by molar mass.

Test: Inhibition of 12-O-tetradecanoylphorbol 13-acetate-induced transformation of mouse JB6 cells after 14 days by soft agar transformation assay
Format: functional, cell-based

IC50: 2.3 µg/mL (≈ 12 µM)
Compound: COc1ccc(/C=C/C=O)cc1OC [3,4-DIMETHOXY CINNAMALDEHYDE]
